Measured values from patent US4520029A, “Farnesene derivatives, mucosal stabilizing compositions and method of manufacturing the same” (Kotobuki Seiyaku Co., Ltd., priority 1980, dated 1985).

Tests used:
[1] = tested on: carragenin-induced rat paw edema; assay: Carragenin-induced rat paw edema (anti-inflammatory effect); type: in vivo; conditions: 300 mg/kg oral, Wister rat, maximum percentage inhibition during 4 hours after administration
Description: The anti-inflammatory effect of these compounds on carragenin-induced rat paw edema was examined in accordance with the method of C. A. Winter (J. Pharmacol. 141, 369, […]. The compounds of the present invention were suspended in 1% methyl-cellulose and orally administered at a dose of 300 mg/kg to Wister rat, weighing about 140 g. The maximum percentage inhibition during 4 hours after administration was calculated as follows: [formula] The results are shown in Table 3.

[2] = Acute toxicity in ddY strain mice, up and down method, oral; conditions: mouse, in vivo, suspended in 1% methyl cellulose, given orally, observation 24 hours, read-out: LD50 (per os)
Description: Acute toxicity of the compounds of the present invention in ddY strain mice was determined by the up and down method, with observation for 24 hours. The compounds in this experiment were suspended in 1% methyl cellulose and given orally.

stress ulcer = assay: Stress ulcer in rats (anti-ulcerative action); type: in vivo, rat; conditions: 100 mg/kg per os, male Wister rats, 30 minutes before the stress; stressing 18 hours; control 4.6 ± 0.70
Description: To study the anti-ulcerative actions of these compounds of the present invention further, the stress ulcer was selected. Male Wister rats, weighing 200-250 g were subjected to stress according to Takagi et al. (Chem. Pharm. Bull 12, 465, 1964). These compounds were suspended in 1% methyl cellulose and were administered to the rat at a dose of 100 mg/kg body weight per os, 30 minutes before the stress. After stressing for 18 hours, the animals were killed by a blow on the head. The removed stomach was filled with 1% formalin solution, placed in 1% formalin solution for 15 minutes and was then cut open along the greater curvature and examined for lesion to obtain the ulcer index. The ulcer index was determined in six grades (0-5; 5 implying perforation of stomach).

gastric epithelial cell = assay: Gastric epithelial cell stabilizing effect in pylorus-ligated rats (NANA in gastric juice); type: in vivo, rat; conditions: male Donryu rats, oral three times a day for five days, 8 hours after pylorus ligation; for NANA content in gastric juice, free: control 22.5, * P < 0.05 vs control (V, VI and VII all marked *); for NANA content in gastric juice, bound: control 93.3; for NANA content in gastric juice, bound / NANA content in gastric juice, total: * P < 0.05 vs control (only V marked *); for NANA content in gastric juice, total: control 115.8
Description: The investigation of the gastric epithelial cell stabilizing effects of these compounds were examined in rats. Male Donryu strain rats, weighing about 200 g, were given the test compound orally three times a day for five days. On the fifth day the animals were fasted for 24 hours, and submitted to pylorus ligation under light ether anesthesia. The test compounds were given just after pylorus ligation orally. After 8 hours of ligation, the rats were sacrificed and the volume of gastric juice was measured. After centrifuging 6 ml of this gastric juice at 5000 r.p.m., 2 ml of the resulting supernatant was submitted to N-acetyl neuraminic acid (NANA) determination according to the method of D. Aminoff (D. Aminoff et al., Biochem. J. […], 384-392 (1961)).

| SMILES | Maximum inhibition [1] [%] | LD50 at 24 h [2] [mg/kg] | Score (ulcer index, six grades 0-5; 5 implying perforation of stomach) (stress ulcer) | NANA content in gastric juice, free (gastric epithelial cell) [µg/mL] | NANA content in gastric juice, bound (gastric epithelial cell) [µg/mL] | NANA content in gastric juice, total (gastric epithelial cell) [µg/mL] |
| --- | --- | --- | --- | --- | --- | --- |
| CC(C)=CCCC(C)=CCCC(C)=CCOC(=O)CC=C(C)CCC=C(C)CCC=C(C)C [Compound V, Farnesyl farnesyl carboxylate] | 35.8 | 24500 | 1.8 ± 0.50 | 17.6 | 74.5 | 92.1 |
| CC(C)=CCCC(C)=CCCC(C)=CCNC(=O)CC=C(C)CCC=C(C)CCC=C(C)C [Compound VI, N-Farnesyl farnesyl carboxamide] | 30.1 | 18700 | 2.3 ± 0.72 | 18.3 | 87.4 | 105.7 |
| CC(C)=CCCC(C)=CCCC(C)=CCNC(=O)OCC=C(C)CCC=C(C)CCC=C(C)C [Compound VII, N-Farnesyl farnesyl carbamate] | 23.7 | 20200 | 2.1 ± 0.41 | 16.7 | 81.3 | 98.3 |
